Patent publication EP4623918A1, “AGENT FOR INCREASING BRAIN PLASMALOGEN, AND USE OF ORAL COMPOSITION AND COMPOUND FOR INCREASING BRAIN PLASMALOGEN” (Institute of Rheological Function of Food Co., Ltd., priority 2022, dated 2024)

Tests used:
MeCP2-deficient mice = test: Effect of KIT-13 on brain plasmalogen in cerebral cortex tissue lysate (LC-MS/MS), MeCP2-deficient mice; type: in vivo; conditions: male MeCP2-deficient mice, 20 ng/g body weight twice a week by drinking-water administration for three weeks, vs control group given water
Method: Four-week-old male MeCP2-deficient mice lacking the MeCP2 gene on the X chromosome were used in the test. The MeCP2-deficient mice were divided into two groups: a control group (MeCP2-KO) and a KIT-13 administration group (KIT-13).
For the KIT-13 administration group, KIT-13 was suspended in water by ultrasonication, and administered twice a week by drinking-water administration such that 20 ng/g body weight of KIT-13 was taken. In contrast, the control group was given only water in a similar manner. KIT-13 was administered for three weeks until the mice were seven weeks old, and the cerebral cortex was collected from the brains of the mice.
(§1) The collected cerebral cortex was homogenized in a lysate (0.25 M sucrose, 10 mM HEPES-KOH (pH 7.4), 1 mM EDTA, and a protease inhibitor cocktail) to prepare a tissue lysate (25 µg protein). To the tissue lysate in a sample tube, 400 µL of MeOH and 100 µL of internal standard IS (C12 phosphatidylethanolamine (PE) and C12 phosphatidylcholine (PC)) dissolved in chloroform/methanol (C:M=1:2) were added and then mixed. The resulting mixture was transferred to a glass tube. […] Thereafter, the sample was dried under nitrogen gas, dissolved in MeOH, and analyzed using liquid chromatography-mass spectrometry (LC-MS/MS). […]

[1] = test system: wild-type mice (male, C57BL/6J mice); test: Effect of KIT-13 on cerebral cortex PlsEtn (LC-MS/MS), wild-type mice; type: in vivo; conditions: wild-type male C57BL/6J mice; KIT-13 given as in Example 2 for four weeks; control group taken as 1; FIG. 2
Method: For the KIT-13 administration group, KIT-13 was suspended in water by ultrasonication, and administered twice a week by drinking-water administration such that 20 ng/g body weight of KIT-13 was taken. In contrast, the control group was given only water in a similar manner. […]
as §1, with “tube. Then, 200 µL of MeOH was added again to the sample tube, and after the same operation, the resulting mixture was transferred to the glass tube. To the sample, 1.2 mL of C/M (1:1) was added, mixed, sonicated for 5 minutes, and left to stand for 60 minutes.” for “tube.”
Four-week-old wild-type mice (male, C57BL/6J mice, manufactured by the Jackson Laboratory Japan, Inc.) were divided into two groups: a control group and a KIT-13 administration group. […] PlsEtn in the collected cerebral cortex was quantified as with Example 2.

CCCCCC=CCC=CCC=CCC=CCCCC(=O)OC(COCCCCCCCCCCCCCCCCCC)COP(=O)(O)OCCN [KIT-13, 2-(hydroxy((R)-2-(((5Z,8Z,11Z,14Z)-icosa-5,8,11,14-tetraenoyl)oxy)-3-(octadedecyloxy)propoxy)phosphoryl)oxy)ethane-1-ammonium 2,2,2-trifluoroacetate]
significantly increased: concentration of PlsEtn in the tissue lysate (MeCP2-deficient mice; p < 0.05, FIG. 1A) | concentration of PlsEtn in which the sn-1 position is a saturated aliphatic hydrocarbon group having 18 carbon atoms (PlsEtn-C18:0), in the tissue lysate (MeCP2-deficient mice; p < 0.05, FIG. 1B) | relative PlsEtn amount in the cerebral cortex [1]
